Measured values from EP0272791A2 (priority 1986, dated 1988).
“And” between values parts separate entries of the source, which are not always exact repeats. Equal values may be shown once. “Also recorded” adds a separate entry of the source. Read-outs that look alike come from different tables or passages of the source.

Key:
tumor cell specimens = assay: differential staining cytotoxicity assay (DiSC), general statements on drug exposure; type: cell-based, human; conditions: for activity in the assay at a 1-hour exposure (in words): must be tested at a continuous exposure
CLL [1] = conditions: for Treated patients, Sensitive / Untreated patients, Sensitive: sensitive: < 30% cell survival
ANLL = assay: differential staining cytotoxicity assay (DiSC), fresh tumor specimens; type: cell-based, human; conditions: for % of all specimens tested which were "sensitive" in vitro (< 30% cell survival): dexamethasone 0.4, cytarabine 3.3, vincristine […] continuous 4-day exposure, mechlorethamine 3.5, doxorubicin 1.67 μg/ml 1-hour exposure
CLL [2] = assay: cells; conditions: Homo sapiens, read-out: average % cell survival in vitro, Vincristine 0.08 µg/ml, continuous exposure; metachronous assays, no intervening therapy
CML-blast crisis = assay: differential staining cytotoxicity assay (DiSC), fresh tumor specimens; conditions: patient CML-BC, 11/09/82 before and 12/14/82 after V + P
multiple myeloma = assay: as above; conditions: metachronous assays, no intervening therapy, patient MM-B, two dates
ALL = conditions: for Treated patients, Resistant / Untreated patients, Resistant / Treated patients, Sensitive / Untreated patients, Sensitive: No. of patients; for Treated patients, Resistant / Untreated patients, Resistant: resistant: > 30% cell survival; for Treated patients, Sensitive / Untreated patients, Sensitive: sensitive: < 30% cell survival; for in vitro activity (in words): active = < 30% cell survival, concentrations of Table 1; for % of all specimens tested which were "sensitive" in vitro (< 30% cell survival): dexamethasone 0.4, cytarabine 3.3, vincristine […] continuous 4-day exposure, mechlorethamine 3.5, doxorubicin 1.67 μg/ml 1-hour exposure
Small Cell Lung Cancer = assay: differential staining cytotoxicity assay (DiSC), fresh tumor specimens; type: cell-based, human; conditions: active = < 30% cell survival; concentrations of Table 1
[3] = system: Non-Small Cell Lung Cancer; assay: as above; type: cell-based, human; conditions: active = < 30% cell survival; concentrations of Table 1
Assorted solid tumors = assay: as above; type: cell-based, human; conditions: for % of all specimens tested which were "sensitive" in vitro (< 30% cell survival): dexamethasone 0.4 μg/ml, cytarabine […], continuous 4-day exposure
[4] = system: non-Hodgkin's lymphoma, multiple myeloma, and blast crisis CML; conditions: data not shown; neoplasms considered together
[5] = Vincristine 0.08 µg/ml, continuous exposure, metachronous assays, no intervening therapy
[6] = Vincristine 0.08 µg/ml, continuous 4-day exposure
[7] = cells from relapsed patients compared with untreated patients
[8] = active = < 30% cell survival, concentrations of Table 1
[9] = Cytarabine 1.0 µg/ml, continuous 4-day exposure
[10] = Doxorubicin 1.67 µg/ml, 1-hr exposure
[11] = No. of patients, Dexamethasone 0.4 µg/ml, continuous 4-day exposure, resistant: > 30% cell survival
[12] = No. of patients, Dexamethasone 0.4 µg/ml, continuous 4-day exposure
[13] = No. of patients, Dexamethasone 4.0 µg/ml, continuous 4-day exposure, resistant: > 30% cell survival
[14] = No. of patients, Dexamethasone 4.0 µg/ml, continuous 4-day exposure
[15] = Dexamethasone 0.4 µg/ml, continuous 4-day exposure
[16] = Dexamethasone 4.0 µg/ml, continuous 4-day exposure

CC[C@]1(O)C[C@H]2CN(CCc3c([nH]c4ccccc34)[C@@](C(=O)OC)(c3cc4c(cc3OC)N(C=O)[C@H]3[C@@](O)(C(=O)OC)[C@H](OC(C)=O)[C@]5(CC)C=CCN6CC[C@]43[C@@H]65)C2)C1 [Vincristine, vincristine]
activity in the assay at a 1-hour exposure (in words) (tumor cell specimens): not active
average % cell survival in vitro (CLL [1]; [5]): 48%
% of all specimens tested which were "sensitive" in vitro (< 30% cell survival) (ANLL): 22% (23)
viability at 0.08 µg/mL (CLL [2]): 46%
viability at 0.08 µg/mL (CML-blast crisis; Homo sapiens, read-out: % cell survival, Vincristine 0.08 μg/ml, continuous exposure): 69%
% cell survival (CML-blast crisis; Vincristine 0.08 μg/ml, continuous exposure): 71%
viability at 0.08 µg/mL (multiple myeloma; Homo sapiens, read-out: average % cell survival in vitro, Vincristine 0.08 µg/ml, continuous exposure): 0%
average % cell survival in vitro (multiple myeloma; Vincristine 0.08 µg/ml, continuous exposure): 0%
Treated patients, Resistant (ALL; [6]): 10
Untreated patients, Resistant (ALL; [6]): 6
Treated patients, Sensitive (ALL; [6]): 1
Untreated patients, Sensitive (ALL; [6]): 10
average % cell survival in vitro (ALL; [5]): 44% and 71%
in vitro activity (in words) (ALL): considerably more sensitive
resistance in the assay, relapsed (treated) vs untreated patients (in words) (ALL; [7]): significantly more resistant
% of all specimens tested which were "sensitive" in vitro (< 30% cell survival) (ALL): 56% (25)

O=NN(CCCl)C(=O)NCCCl [Carmustine, carmustine]
viability at 11 µg/mL (multiple myeloma; Homo sapiens, 1 h, read-out: average % cell survival in vitro, Carmustine […], 1 hour exposure): 15%

N.N.[Cl][Pt][Cl] [Cisplatin, cisplatin]
in vitro activity (in words) (CLL [1]; [8]): completely refractory
in vitro activity (in words) (Small Cell Lung Cancer): high activity
in vitro activity (in words) [3]: most active agent tested; also recorded: moderate activity

N[C@@H](Cc1ccc(N(CCCl)CCCl)cc1)C(=O)O [Melphalan, melphalan]
Treated patients, Resistant (CLL [1]): 11 and 8

O=P1(N(CCCl)CCCl)NCCCO1 (centres unmarked) [cyclophosphamide]
activity in vitro (in words) (tumor cell specimens): not active in vitro

Nc1ccn([C@@H]2O[C@H](CO)[C@@H](O)[C@@H]2O)c(=O)n1 [Cytarabine, cytarabine]
activity in the assay at a 1-hour exposure (in words) (tumor cell specimens): not active
in vitro activity (in words) (ANLL; [8]): active
% of all specimens tested which were "sensitive" in vitro (< 30% cell survival) (ANLL): 76% (34)
Treated patients, Resistant (ALL; [9]): 7
Untreated patients, Resistant (ALL; [9]): 4
Treated patients, Sensitive (ALL; [9]): 2
Untreated patients, Sensitive (ALL; [9]): 6
in vitro activity (in words) (ALL): active
% of all specimens tested which were "sensitive" in vitro (< 30% cell survival) (ALL): 68% (19)
resistance in the assay, relapsed (treated) vs untreated patients (in words) (ALL; the higher concentration of cytarabine): significantly more resistant
% of all specimens tested which were "sensitive" in vitro (< 30% cell survival) (Assorted solid tumors): 3% (31)

COc1cccc2c1C(=O)c1c(O)c3c(c(O)c1C2=O)C[C@@](O)(C(=O)CO)C[C@@H]3O[C@H]1C[C@H](N)[C@H](O)[C@H](C)O1 [Doxorubicin, doxorubicin]
resistance in vitro, previously treated vs previously untreated patients (in words) (CLL [1]; prior treatment with alkylating agents (usually chlorambucil or cyclophosphamide) with or without prednisone): significantly more resistant
resistance in vitro, previously treated vs previously untreated patients (in words) [4]: significantly more resistant
% of all specimens tested which were "sensitive" in vitro (< 30% cell survival) (ANLL): 48% (27)
% cell survival (CML-blast crisis; Doxorubicin 1.6 μg/ml, 1 hour exposure, 60 min): 86% and 59%
Treated patients, Resistant (ALL; [10]): 7
Untreated patients, Resistant (ALL; [10]): 1
Treated patients, Sensitive (ALL; [10]): 4
Untreated patients, Sensitive (ALL; [10]): 10
in vitro activity (in words) (ALL): somewhat more sensitive than ANLL
resistance in the assay, relapsed (treated) vs untreated patients (in words) (ALL; [7]): significantly more resistant
% of all specimens tested which were "sensitive" in vitro (< 30% cell survival) (ALL): 72% (18)

C[C@@H]1C[C@H]2[C@@H]3CCC4=CC(=O)C=C[C@]4(C)[C@@]3(F)[C@@H](O)C[C@]2(C)[C@@]1(O)C(=O)CO [Dexamethasone, dexamethasone]
activity in the assay at a 1-hour exposure (in words) (tumor cell specimens): not active
Treated patients, Resistant (CLL [1]; [11]): 13
Untreated patients, Resistant (CLL [1]; [11]): 18
Treated patients, Sensitive (CLL [1]; [12]): 2
Untreated patients, Sensitive (CLL [1]; [12]): 10
Treated patients, Resistant (CLL [1]; [13]): 10
Untreated patients, Resistant (CLL [1]; [13]): 15
Treated patients, Sensitive (CLL [1]; [14]): 2
Untreated patients, Sensitive (CLL [1]; [14]): 10
% of all specimens tested which were "sensitive" in vitro (< 30% cell survival) (ANLL): 7% (41)
% cell survival (CML-blast crisis; Dexamethasone 4.0 μg/ml, continuous exposure): 68%
viability at 4 µg/mL (CML-blast crisis; Homo sapiens, read-out: % cell survival, Dexamethasone 4.0 μg/ml, continuous exposure): 73%
Treated patients, Resistant (ALL; [15]): 7
Untreated patients, Resistant (ALL; [15]): 6
Treated patients, Sensitive (ALL; [15]): 4
Untreated patients, Sensitive (ALL; [15]): 16
Treated patients, Resistant (ALL; [16]): 7
Untreated patients, Resistant (ALL; [16]): 5
Treated patients, Sensitive (ALL; [16]): 3
Untreated patients, Sensitive (ALL; [16]): 13
in vitro activity (in words) (ALL): active
% of all specimens tested which were "sensitive" in vitro (< 30% cell survival) (ALL): 61% (33)
in vitro activity (in words) (Assorted solid tumors; [8]): not active
% of all specimens tested which were "sensitive" in vitro (< 30% cell survival) (Assorted solid tumors): 0% (34)
